Here are results for one compound from patent publication US20110224300A1, “USE OF POTASSIUM 2-(a- HYDROXYPENTYL) BENZOATE IN THE MANUFACTURE OF MEDICAMENTS FOR PREVENTING AND/OR TREATING SENILE [sequence]” (Institute of Mataria Medica, Chinese Academy of Me, priority 2008, published 2011).

The test system of one test is GFAP. As to the kind of experiment: GFAP immunohistochemistry, activated astrocytes of 2-VO rats. In kind it is in vivo, rat. The protocol: The method for tissue fixation was described above. Serial coronal sections (40 μm) of the brains were cut through the dorsal hippocampus on a freezing microtome and collected in 6-well plates containing 0.01 M PBS. The detection of GFAP and BDNF immunoreactivity was performed using a conventional avidin-biotin-immunoperoxidease technique.
For quantitative analysis, one from every five samples in a continuous series of hippocampal or cortical tissue sections was taken, and was processed immunohistochemically. Thus, three slides were taken from each rat, and were read under an objective (×1.6) microscope. The total area of positively stained neurons was counted with Image-pro Plus 5.0 software.
Cerebral damage caused by hypoperfusion may be the basis for spatial learning and memory impairment, including earliest white matter damage, accompanied by an increase of astrocytes and microglia activation. Glial fibrillary acidic protein (GFAP) immunohistochemical staining can be used to label the activated astrocytes. 2-3 photos were taken from each selected slices in the same regions. The number of the GFAP positive astrocytes was calculated as the average value of the region. Four anatomical regions were selected to observe: the cortex, hippocampus, corpus callosum and optic tract.

The test system of test [1] is permanent 2-VO rats (chronic cerebral hypoperfusion). In words: Morris water maze in permanent 2-VO (BCCAO) rats. In kind it is in vivo, rat. The settings on record: Piracetam 600 mg/kg. The text has this:
Chronic cerebral hypoperfusion was proceeded by a permanent, bilateral occlusion of the common carotid arteries (2-VO) of adult rats. The rats were anesthetized with 10% trichloro-acetaldehyde, and temperature probe was inserted into the rectum, and a separate heating lamp was used to maintain rectal temperature at normothermic level. After a midline neck skin incision, the common carotid artery were exposed and ligated by a 5-0 nylon suture.
Rats were randomly divided into six experimental groups (20 rats/each group): one sham-operated group, one vehicle control group, one piracetam-treated group (600 mg/kg), and three dl-PHPB-treated groups (13, 39, and 129 mg/kg). In 10 days after onset of 2-VO, drugs and vehicle were administered orally to rats for 21 days (one time/each day). The spatial learning and memory capability of rats were detected by Morris water maze in the 25-30 days after operation. The Morris water test was commenced at 40 min after drugs treated. The biochemical and pathology assays were conducted later (in 24 h) after behavioral tests.
Subjects were tested in a Morris water maze. This test is based on a standardized assessment of spatial learning ability. The water maze apparatus consisted of a circular, stainless pool (120 cm in diameter, 60 cm in height). It was placed in a dimly lit, sound-proof test room. Multiple distant cues around the room (window, cabinets, furniture) were kept in the same location throughout the experiments. The water was filled to a depth of 40 cm at 25±1° C. and was made opaque by adding milk powder to prevent visualization of the platform. A transparent platform (10 cm diameter) was put 1.5 cm below the surface of the water. The tank was divided into four quadrants with the platform in a fixed position in one quadrant. The subjects were placed into the maze facing the pool wall and were allowed two trials per day, 60 s per trial, to find the hidden platform. If the subject found the platform within the 60 s, it was given a 10-s rest period on the platform between trials. If the pedestal was not located within the time allotted, the subject was placed on to the platform and allowed 10 s until the next trial. The escape latency (time to reach the platform) was used to assess acquisition of the water maze task. Sessions were repeated for five consecutive days. On the sixth day, the platform was removed and the rat was allowed to search for the platform for 60 s (probe test). The time in the platform quadrant and latency time to cross platform location were recorded to measure the spatial learning ability without the influence of chance encounters with the platform. The Morris water maze sessions were recorded with a video camera for offline analysis.

[2] abbreviates: 1st of 5 M/R/T/L column groups (day not printed).
The mark [3] stands for this setting: 2nd of 5 M/R/T/L column groups (day not printed).
[4] abbreviates: 3rd of 5 M/R/T/L column groups (day not printed).
Setting [5] is: 4th of 5 M/R/T/L column groups (day not printed).
Setting [6] is: 5th of 5 M/R/T/L column groups (day not printed).

Turning to `NC(=O)CN1CCCC1=O` [Piracetam, reference compound], the “GFAP-positive cells in the optic tract” value with GFAP (Piracetam, 21 days) is “significantly less than the vehicle group”. Besides, in the test with GFAP (administration of 21 days, P<0.05 or P<0.01), the “GFAP-positive cells in the hippocampus” value is listed as “significantly less than in the vehicle group”. Besides, in the test on GFAP (administration of 21 days, in particular dl-PHPB 39 mg/kg (P<0.01)), the “GFAP-positive cells in the cortex” value was “significantly less than in the vehicle group”. Further, the “search strategy times, linear mode (L)” value in test [1] (setting [2]) came out at 1; in test [1] (setting [3]), 8; in test [1] (setting [4]) it was 10; in test [1] (setting [5]), 10; in test [1] (setting [6]), 19. Moreover, the “search strategy times, marginal mode (M)” value in test [1] (setting [2]) was determined as 10; in test [1] (setting [3]), 3; in test [1] (setting [4]) it was 1; in test [1] (setting [5]), 1; in test [1] (setting [6]), 1. For the same compound, the “search strategy times, random mode (R)” value worked out at 15 in test [1] (setting [2]); 11 in test [1] (setting [3]); 6 in test [1] (setting [4]); 7 in test [1] (setting [5]); 8 in test [1] (setting [6]). Also, the “search strategy times, tendency mode (T)” value in test [1] (setting [2]) was found to be 14; in test [1] (setting [3]), 17; in test [1] (setting [4]), 23; in test [1] (setting [5]), 23; in test [1] (setting [6]) it was 12.
